Measured values published in paper PMC9481151, “Discovery of new symmetrical and asymmetrical nitrile-containing 1,4-dihydropyridine derivatives as dual kinases and P-glycoprotein inhibitors: synthesis, in vitro assays, and in silico studies” (Journal of Enzyme Inhibition and Medicinal Chemistry, 2022).
Where “and” joins values, the source holds several entries; their conditions need not be identical. Identical values can stand only once.

Assays:
HCC-2998 = test: NCI single dose (10 µM) SRB screen; assay type: cell-based, human; settings: colon cancer, 48 h
SF-295 = test: NCI single dose (10 µM) SRB screen; assay type: cell-based, human; settings: CNS cancer, 48 h
BT-549 = test: NCI single dose (10 µM) SRB screen; assay type: cell-based, human; settings: breast cancer, 48 h
Staphylococcus aureus = test: Agar well diffusion method
MDA-MB-468 = test: NCI single dose (10 µM) SRB screen; assay type: cell-based, human; settings: breast cancer, 48 h
NCI/ADR-RES = test: NCI single dose (10 µM) SRB screen; assay type: cell-based, human; settings: ovarian cancer, 48 h
RPMI-8226 = test: NCI single dose (10 µM) SRB screen; assay type: cell-based, human; settings: leukaemia, 48 h
SR = test: NCI single dose (10 µM) SRB screen; assay type: cell-based, human; settings: leukaemia, 48 h
CCRF-CEM = test: NCI single dose (10 µM) SRB screen; assay type: cell-based, human; settings: leukaemia, 48 h
OVCAR-8 = test: NCI single dose (10 µM) SRB screen; assay type: cell-based, human; settings: ovarian cancer, 48 h
UO-31 = test: NCI single dose (10 µM) SRB screen; assay type: cell-based, human; settings: renal cancer, 48 h
MCF7 = test: NCI single dose (10 µM) SRB screen; assay type: cell-based, human; settings: breast cancer, 48 h
DU-145 = test: NCI single dose (10 µM) SRB screen; assay type: cell-based, human; settings: prostate cancer, 48 h
SNB-75 = test: NCI single dose (10 µM) SRB screen; assay type: cell-based, human; settings: CNS cancer, 48 h
COLO 205 = test: NCI single dose (10 µM) SRB screen; assay type: cell-based, human; settings: colon cancer, 48 h
MOLT-4 = test: NCI single dose (10 µM) SRB screen; assay type: cell-based, human; settings: leukaemia, 48 h
K-562 = test: NCI single dose (10 µM) SRB screen; assay type: cell-based, human; settings: leukaemia, 48 h
HOP-62 = test: NCI single dose (10 µM) SRB screen; assay type: cell-based, human; settings: non-small cell lung cancer, 48 h
SF-539 = test: NCI single dose (10 µM) SRB screen; assay type: cell-based, human; settings: CNS cancer, 48 h
SW-620 = test: NCI single dose (10 µM) SRB screen; assay type: cell-based, human; settings: colon cancer, 48 h
NCI-H522 = test: NCI single dose (10 µM) SRB screen; assay type: cell-based, human; settings: non-small cell lung cancer, 48 h
UACC-257 = test: NCI single dose (10 µM) SRB screen; assay type: cell-based, human; settings: melanoma, 48 h
786-0 = test: NCI single dose (10 µM) SRB screen; assay type: cell-based, human; settings: renal cancer, 48 h
RXF 393 = test: NCI single dose (10 µM) SRB screen; assay type: cell-based, human; settings: renal cancer, 48 h
UACC-62 = test: NCI single dose (10 µM) SRB screen; assay type: cell-based, human; settings: melanoma, 48 h
SNB-19 = test: NCI single dose (10 µM) SRB screen; assay type: cell-based, human; settings: CNS cancer, 48 h
HOP-92 = test: NCI single dose (10 µM) SRB screen; assay type: cell-based, human; settings: non-small cell lung cancer, 48 h
NCI-H460 = test: NCI single dose (10 µM) SRB screen; assay type: cell-based, human; settings: non-small cell lung cancer, 48 h
Pseudomonas aeruginosa = test: Agar well diffusion method
SK-OV-3 = test: NCI single dose (10 µM) SRB screen; assay type: cell-based, human; settings: ovarian cancer, 48 h
MALME-3M = test: NCI single dose (10 µM) SRB screen; assay type: cell-based, human; settings: melanoma, 48 h
LOX IMVI = test: NCI single dose (10 µM) SRB screen; assay type: cell-based, human; settings: melanoma, 48 h
MDA-MB-231 = test: NCI single dose (10 µM) SRB screen; assay type: cell-based, human; settings: breast cancer, 48 h
U251 = test: NCI single dose (10 µM) SRB screen; assay type: cell-based, human; settings: CNS cancer, 48 h
NCI-H322M = test: NCI single dose (10 µM) SRB screen; assay type: cell-based; settings: non-small cell lung cancer, 48 h
SN12C = test: NCI single dose (10 µM) SRB screen; assay type: cell-based, human; settings: renal cancer, 48 h
Bacillus subtilis = test: Agar well diffusion method
OVCAR-3 = test: NCI single dose (10 µM) SRB screen; assay type: cell-based, human; settings: ovarian cancer, 48 h
HL-60(TB) = test: NCI single dose (10 µM) SRB screen; assay type: cell-based, human; settings: leukaemia, 48 h
HCT-116 = test: NCI single dose (10 µM) SRB screen; assay type: cell-based, human; settings: colon cancer, 48 h
OVCAR-4 = test: NCI single dose (10 µM) SRB screen; assay type: cell-based, human; settings: ovarian cancer, 48 h
T-47D = test: NCI single dose (10 µM) SRB screen; assay type: cell-based, human; settings: breast cancer, 48 h
MDA-MB-435 = test: NCI single dose (10 µM) SRB screen; assay type: cell-based, human; settings: melanoma, 48 h
M14 = test: NCI single dose (10 µM) SRB screen; assay type: cell-based, human; settings: melanoma, 48 h
SK-MEL-28 = test: NCI single dose (10 µM) SRB screen; assay type: cell-based, human; settings: melanoma, 48 h
EKVX = test: NCI single dose (10 µM) SRB screen; assay type: cell-based, human; settings: non-small cell lung cancer, 48 h
SF-268 = test: NCI single dose (10 µM) SRB screen; assay type: cell-based, human; settings: CNS cancer, 48 h
PC-3 = test: NCI single dose (10 µM) SRB screen; assay type: cell-based, human; settings: prostate cancer, 48 h
NCI-H23 = test: NCI single dose (10 µM) SRB screen; assay type: cell-based, human; settings: non-small cell lung cancer, 48 h
A549/ATCC = test: NCI single dose (10 µM) SRB screen; assay type: cell-based, human; settings: non-small cell lung cancer, 48 h
NCI 60 cancer cell lines = test: NCI single dose (10 µM) SRB screen, mean over panel; assay type: cell-based, human; settings: mean over 60 cell lines, 48 h
A498 = test: NCI single dose (10 µM) SRB screen; assay type: cell-based, human; settings: renal cancer, 48 h
HCT-15 = test: NCI single dose (10 µM) SRB screen; assay type: cell-based, human; settings: colon cancer, 48 h

COCCOC(=O)C1=C(C)NC(C)=C(C(=O)OCCOC)C1c1cccc(C#N)c1 [Compound 1f, Di(2-methoxyethyl) 4-(3-cyanophenyl)-2,6-dimethyl-1,4-dihydropyridine-3,5-dicarboxylate]
GI% HCC-2998 (HCC-2998): – (Only GI% ≥ 10 are shown) | GI% SF-295 (SF-295): – (Only GI% ≥ 10 are shown) | GI% BT-549 (BT-549): 12% | zone of inhibition at 1000 µg/mL (Staphylococcus aureus; Staphylococcus aureus, 24 h, read-out: Diameter of inhibition zone, S. aureus): 19 mm | % activity index, S. aureus (Staphylococcus aureus; relative to ciprofloxacin): 79% and 79.2% | GI% MDA-MB-468 (MDA-MB-468): 13% | GI% NCI/ADR-RES (NCI/ADR-RES): – (Only GI% ≥ 10 are shown) | GI% RPMI-8226 (RPMI-8226): – (Only GI% ≥ 10 are shown) | GI% SR (SR): – (Only GI% ≥ 10 are shown) | GI% CCRF-CEM (CCRF-CEM): – (Only GI% ≥ 10 are shown) | GI% OVCAR-8 (OVCAR-8): – (Only GI% ≥ 10 are shown) | GI% UO-31 (UO-31): – (Only GI% ≥ 10 are shown) | GI% MCF7 (MCF7): – (Only GI% ≥ 10 are shown) | GI% DU-145 (DU-145): – (Only GI% ≥ 10 are shown) | GI% SNB-75 (SNB-75): 14% | GI% COLO 205 (COLO 205): – (Only GI% ≥ 10 are shown) | GI% MOLT-4 (MOLT-4): – (Only GI% ≥ 10 are shown) | GI% K-562 (K-562): – (Only GI% ≥ 10 are shown) | GI% HOP-62 (HOP-62): – (Only GI% ≥ 10 are shown) | GI% SF-539 (SF-539): – (Only GI% ≥ 10 are shown) | GI% SW-620 (SW-620): – (Only GI% ≥ 10 are shown) | GI% NCI-H522 (NCI-H522): – (Only GI% ≥ 10 are shown) | GI% UACC-257 (UACC-257): – (Only GI% ≥ 10 are shown) | GI% 786-0 (786-0): – (Only GI% ≥ 10 are shown) | GI% RXF 393 (RXF 393): – (Only GI% ≥ 10 are shown) | GI% UACC-62 (UACC-62): – (Only GI% ≥ 10 are shown) | GI% SNB-19 (SNB-19): – (Only GI% ≥ 10 are shown) | GI% HOP-92 (HOP-92): – (Only GI% ≥ 10 are shown) | GI% NCI-H460 (NCI-H460): – (Only GI% ≥ 10 are shown) | zone of inhibition at 1000 µg/mL (Pseudomonas aeruginosa; Pseudomonas aeruginosa, 24 h, read-out: Diameter of inhibition zone, P. aeruginosa): 17 mm | % activity index, P. aeruginosa (Pseudomonas aeruginosa; relative to ciprofloxacin): 73.9% | GI% SK-OV-3 (SK-OV-3): – (Only GI% ≥ 10 are shown) | GI% MALME-3M (MALME-3M): – (Only GI% ≥ 10 are shown) | GI% LOX IMVI (LOX IMVI): – (Only GI% ≥ 10 are shown) | GI% MDA-MB-231 (MDA-MB-231): – (Only GI% ≥ 10 are shown) | GI% U251 (U251): – (Only GI% ≥ 10 are shown) | GI% NCI-H322M (NCI-H322M): – (Only GI% ≥ 10 are shown) | GI% SN12C (SN12C): – (Only GI% ≥ 10 are shown) | zone of inhibition at 1000 µg/mL (Bacillus subtilis; Bacillus subtilis, 24 h, read-out: Diameter of inhibition zone, B. subtilis): 16 mm | % activity index, B. subtilis (Bacillus subtilis; relative to ciprofloxacin): 69.6% | GI% OVCAR-3 (OVCAR-3): – (Only GI% ≥ 10 are shown) | GI% HL-60(TB) (HL-60(TB)): 10% | GI% HCT-116 (HCT-116): – (Only GI% ≥ 10 are shown) | GI% OVCAR-4 (OVCAR-4): – (Only GI% ≥ 10 are shown) | GI% T-47D (T-47D): – (Only GI% ≥ 10 are shown) | GI% MDA-MB-435 (MDA-MB-435): – (Only GI% ≥ 10 are shown) | GI% M14 (M14): – (Only GI% ≥ 10 are shown) | GI% SK-MEL-28 (SK-MEL-28): – (Only GI% ≥ 10 are shown) | GI% EKVX (EKVX): – (Only GI% ≥ 10 are shown) | GI% SF-268 (SF-268): – (Only GI% ≥ 10 are shown) | GI% PC-3 (PC-3): – (Only GI% ≥ 10 are shown) | GI% NCI-H23 (NCI-H23): – (Only GI% ≥ 10 are shown) | GI% A549/ATCC (A549/ATCC): – (Only GI% ≥ 10 are shown) | Mean GI% (NCI 60 cancer cell lines): −1% | GI% A498 (A498): – (Only GI% ≥ 10 are shown) | GI% HCT-15 (HCT-15): – (Only GI% ≥ 10 are shown)
